Tested on: Meth A
Assay: Tumor rejection (immunization-challenge) assay; tumor growth AUC and tumor rejection score (TRS)
Type: in vivo, BALB/cJ mice
Experimental: Each line represents tumor growth in a single mouse (n = 5 mice per group). AUC for each group is plotted in the panel on the right. Data are presented as mean ± SD. P values were calculated using 1-way ANOVA test adjusted for multiple comparisons (Tukey’s multiple comparison test). c Several truncated versions of the 18-mer Ccdc85c^MUT peptide were tested in tumor rejection assay. BALB/cJ mice were immunized and tumor challenged. Each line represents tumor growth in a single mouse. Although mice were immunized with individual peptides, the data for multiple peptides are grouped into one with the composition of the peptides shown on the right. The tumor rejection data for individual peptides are shown in Supplementary Fig. 1. Tumor rejection score (TRS) for each neoepitope is shown in the yellow box, where five represents a complete tumor protection and zero means no tumor rejection. d On the left panel, total Area Under the Curve (AUC) scores for each group in B are plotted. […] Error bars represent standard deviation (SD). […] P values were calculated using 1-way ANOVA test adjusted for multiple comparisons. […] Matched peak lists for the “heavy” and “light” ions were extracted and monitored, while only single charge y ions were plotted. See Methods for details. f Predicted (by NetMHC4.0) and measured IC50 values of the binding of candidate precise neoepitopes of Ccdc85c^MUT to K^d are shown. […] The affinities of the MS/TRS predicted neoepitopes were also measured for D^d and L^d; measured affinities were below the level of detection.
The mutation is heterozygous and the un-mutated as well as the mutated reads are detected in the transcripts. […] All mice were challenged with the Meth A cells, and tumor rejection was monitored (Fig. 1b upper panel). […]
Area under the curve (AUC) is used as a tool to measure tumor growth. Briefly, AUC was calculated by selecting “Curves & Regression” and then “Area under curve” from the “analyze” tool, using the Prism 5.0 (GraphPad). […]

DPSSTYIRPFETKVKLLD [18-mer peptide with the mutant amino acid near the center]
tumor rejection (in words) (BALB/cJ mice immunized twice, CTLA4 blockade): potent tumor rejection or control in all mice
Tumor rejection score (TRS) (BALB/cJ mice, BMDCs pulsed with 40 µg peptide, two immunizations one week apart, CTLA4 blockade (9D9), scale 0 (no rejection) to 5 (100% of mice)): 5.0
